Broadly, the half-life is the time in which the quantity being followed falls by half. In general, IC50 refers to the concentration that gives 50% inhibition.

Results on 34 compounds are retold here after patent US9145391B2, “Bipyridylaminopyridines as Syk inhibitors” (Merck Sharp & Dohme Corp., priority 2011, dated 2015).

The nature of data set [1]: Hydrolysis assay: hydrolysis of prodrug to parent species in human liver S9. The data set is classed as in vitro ADME. The settings on record: human liver S9 1 mg protein/mL, prodrug 10 μM, 37° C., pH 7.4, 1 mM NADPH; for half-life at 10 μM: read-out: Half-life (min) of the conversion of the prodrug to the carboxylic acid. How it is done: Hydrolysis Assay: Analysis of Hydrolysis of Prodrug to Parent Species
The stability of 8 different prodrugs was investigated in human liver S9 microsomes. Incubations of prodrugs (10 μM) with liver S9 (1 mg protein/mL) were carried out at 37° C. in a phosphate buffer, pH 7.4, containing 1 mM NADPH. Control incubations contained BSA (1.1 mg/mL) instead of liver S9 microsomes. Aliquots were removed at 0, 5, 15, 30, 60 and 120 min, treated with 4 volumes of acetonitrile containing 2% formic acid and an internal standard, and centrifuged. The supernatants were analyzed by LC-MS/MS for prodrug disappearance and appearance of active drug. The half-life of the prodrug was calculated from the % prodrug remaining at different time points calculated from on the peak area ratio relative to t=0. The amount of active drug generated at the different time points was determined using a standard curve.

The target of data set [2] is recombinant human GST-Syk (Homo sapiens (Human), UniProt P43405). Nature of the data set: Homogeneous Time-Resolved Fluorescence (HTRF) assay for the recombinant human Syk enzyme. The data set is classed as biochemical. The settings on record: recombinant human GST-Syk 5 pM, ATP 25 μM, read-out: rhSyk IC50. The method, boiled down:
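Recombinant GST-hSyk fusion protein kinase activity was read by HTRF. Reactions were started with biotinylated substrate peptide at 250 nM final, Mg 5 mM final and ATP 25 μM final. Potency derived from inhibition of substrate phosphorylation.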

Structures are written as SMILES.

Take `CCOC(=O)[C@H]1CC[C@H](C(C)(O)c2ccc(-c3cc(C)cc(Nc4cc(C(F)F)ccn4)n3)cn2)CC1` (single isomer, unassigned) [Example 17, Ethyl trans-4-[(1R or 1S)-1-(6-{[4-(difluoromethyl)pyridin-2-yl]amino}-4-methyl-2,3′-bipyridin-6′-yl)-1-hydroxyethyl]cyclohexanecarboxylate]: the half-life at 10 μM in data set [1] was 5.6 min. Besides, in data set [2], the IC50 was found to be 18 nM.
Consider `CCCCCCCOC(=O)[C@H]1CC[C@H](C(C)(O)c2ccc(-c3cc(C)cc(Nc4cc(C(F)F)ccn4)n3)cn2)CC1` (single isomer, unassigned) [Example 19-10, heptyl trans-4-[(1R or 1S)-1-(6-{[4-(difluoromethyl)pyridin-2-yl]amino}-4-methyl-2,3′-bipyridin-6′-yl)-1-hydroxyethyl] cyclohexanecarboxylate], for which the “Half-life (min) of the conversion of the prodrug to the carboxylic acid” value in data set [1] is 40 min. For the same compound, the IC50 in data set [2] was 670 nM.
As for `COCCOC(=O)[C@H]1CC[C@H](C(C)(O)c2ccc(-c3cc(C)cc(Nc4cc(C(F)F)ccn4)n3)cn2)CC1` (single isomer, unassigned) [Example 19-15, 2-methoxyethyl trans-4-[(1R or 1S)-1-(6-{[4-(difluoromethyl)pyridin-2-yl]amino}-4-methyl-2,3′-bipyridin-6′-yl)-1-hydroxyethyl] cyclohexanecarboxylate], the “Half-life (min) of the conversion of the prodrug to the carboxylic acid” value in data set [1] was determined as 3.9 min. Besides, in data set [2], the IC50 amounted to 6.4 nM.
For `Cc1cc(Nc2cc(C(F)F)ccn2)nc(-c2ccc(C(C)(O)[C@H]3CC[C@H](C(=O)OCC(=O)N(C)C)CC3)nc2)c1` (single isomer, unassigned) [Example 19-18, 2-(dimethylamino)-2-oxoethyl trans-4-[(1R or 1S)-1-(6-{[4-(difluoromethyl)pyridin-2-yl]amino}-4-methyl-2,3′-bipyridin-6′-yl)-1-hydroxyethyl] cyclohexanecarboxylate] the same measures were 6.2 min and 1.2 nM.
The matching figures for `Cc1cc(Nc2cc(C(F)F)ccn2)nc(-c2ccc(C(C)(O)[C@H]3CC[C@H](C(=O)OCCN4CCOCC4)CC3)nc2)c1` (single isomer, unassigned) [Example 19-19, 2-{morpholin-4-yl)ethyl trans-4-[(1R or 1S)-1-(6-{[4-(difluoromethyl)pyridin-2-yl]amino}-4-methyl-2,3′-bipyridin-6′-yl)-1-hydroxyethyl] cyclohexanecarboxylate]: 15 min and 8.7 nM.
In the case of `CCOC(=O)OCOC(=O)[C@H]1CC[C@H](C(C)(O)c2ccc(-c3cc(C)cc(Nc4cc(C(F)F)ccn4)n3)cn2)CC1` (single isomer, unassigned) [Example 20, [(Ethoxycarbonyl)oxy]methyl trans-4-[(1R or 1S)-1-(6-{[4-(difluoromethyl)pyridin-2-yl]amino}-4-methyl-2,3′-bipyridin-6′-yl)-1-hydroxyethyl]cyclohexanecarboxylate], in data set [1], the half-life at 10 μM is 3 min. In addition, the IC50 in data set [2] turned out to be 14 nM.
The matching figures for `CC(=O)OCOC(=O)[C@H]1CC[C@H](C(C)(O)c2ccc(-c3cc(C)cc(Nc4cc(C(F)F)ccn4)n3)cn2)CC1` (single isomer, unassigned) [Example 21, (Acetyloxy)methyl trans-4-[(1R or 1S)-1-(6-{[4-(difluoromethyl)pyridin-2-yl]amino}-4-methyl-2,3′-bipyridin-6′-yl)-1-hydroxyethyl]cyclohexanecarboxylate]: 3.3 min and 11 nM.
On to `Cc1cc(Nc2cc(C(F)(F)F)ccn2)nc(-c2ccc(NC3CCN(C(=O)c4ccc(Oc5ccccc5)cc4)CC3)nc2)c1` [Example 4-114], for which the IC50 in data set [2] worked out at 23 nM.
For the compound `Cc1cc(Nc2cc(C(F)(F)F)ccn2)nc(-c2ccc(NC3CCN(C(=O)c4ccc(F)c(O)c4)CC3)nc2)c1` [Example 4-115], the IC50 in data set [2] came out at 4 nM.
The same measure, in the same setting: the result for `Cc1cc(Nc2cc(C(F)(F)F)ccn2)nc(-c2ccc(NC3CCN(C(=O)Cc4ccc(O)c(F)c4)CC3)nc2)c1` [Example 4-116] reads 4 nM; that for `Cc1cc(Nc2cc(C(F)(F)F)ccn2)nc(-c2ccc(NC3CCN(C(=O)c4cccc5c4-c4ccccc4C5)CC3)nc2)c1` [Example 4-117], 141 nM.
`Cc1cc(Nc2cc(C(F)(F)F)ccn2)nc(-c2ccc(NC3CCN(C(=O)c4cc5ccccc5n4-c4ccccc4)CC3)nc2)c1` [Example 4-118]: the IC50 in data set [2] was found to be 176 nM.
Regarding `Cc1cc(Nc2cc(C(F)(F)F)ccn2)nc(-c2ccc(NC3CCN(C(=O)c4cccc5c6c([nH]c45)CCCC6)CC3)nc2)c1` [Example 4-119], the 50% inhibitory concentration (IC50) in data set [2] was determined as 19 nM.
Turning to `Cc1cc(Nc2cc(C(F)(F)F)ccn2)nc(-c2ccc(NC3CCN(C(=O)c4cccc5[nH]ncc45)CC3)nc2)c1` [Example 4-120], the 50% inhibitory concentration (IC50) in data set [2] was 9 nM.
Still for that read-out and setting: the figure for `Cc1cc(Nc2cc(C(F)(F)F)ccn2)nc(-c2ccc(NC3CCN(C(=O)CCc4nc5ccccc5s4)CC3)nc2)c1` [Example 4-121] is 5 nM; for `Cc1cc(Nc2cc(C(F)(F)F)ccn2)nc(-c2ccc(NC3CCN(C(=O)c4cccc(-c5ccccc5)c4)CC3)nc2)c1` [Example 4-122] it is 3 nM.
The same measure, in the same setting: the result for `Cc1cc(Nc2cc(C(F)(F)F)ccn2)nc(-c2ccc(N3CC[C@H](N)C3)nc2)c1` [Example 5, 6′-[(3S)-3-aminopyrrolidin-1-yl]-4-methyl-N-[4-(trifluoromethyl)pyridin-2-yl]-2,3′-bipyridin-6-amine] reads 1 nM; that for `Cc1cc(Nc2cc(C(F)(F)F)ccn2)nc(-c2ccc(N3CCCC(N)C3)nc2)c1` (centres unmarked) [Example 5-1], 2 nM.
Still for that read-out and setting: the figure for `Cc1cc(Nc2cc(C(F)(F)F)ccn2)nc(-c2ccc(NC3CCNCC3)nc2)c1` [Example 5-2] is 6 nM; for `Cc1cc(Nc2cc(C(F)(F)F)ccn2)nc(-c2ccc(C3(O)CCNCC3)nc2)c1` [Example 5-3] it is 9 nM; for `CC(=O)N[C@H]1CCN(c2ccc(-c3cc(C)cc(Nc4cc(C(F)(F)F)ccn4)n3)cn2)C1` [Example 6, N-[(3S)-1-(4-methyl-6-{[4-(trifluoromethyl)pyridin-2-yl]amino}-2,3′-bipyridin-6′-yl)pyrrolidin-3-yl]acetamide] it is 17 nM.
With `Cc1cc(Nc2cc(C(F)(F)F)ccn2)nc(-c2ccc(N3CC[C@H](NC(=O)c4ccc5cc[nH]c5c4)C3)nc2)c1` [Example 6-1], the half-inhibitory concentration (IC50) in data set [2] stood at 17 nM.
Still for that read-out and setting: the result for `Cc1cc(Nc2cc(C(F)(F)F)ccn2)nc(-c2ccc(NC3CCN(C(N)=O)CC3)nc2)c1` [Example 7, 4-(4-Methyl-6-(4-(trifluoromethyl)pyridin-2-ylamino)-2,3′-bipyridin-6′-ylamino)piperidine-1-carboxamide] reads 4 nM.
With `Cc1cc(Nc2cc(C(F)(F)F)ccn2)nc(-c2ccc(N3CCCC(NC(N)=O)C3)nc2)c1` (centres unmarked) [Example 7-1], the 50% inhibitory concentration (IC50) in data set [2] was 5 nM.
In the case of `Cc1cc(Nc2cc(C(F)(F)F)ccn2)nc(-c2ccc(C3(O)CCN(C(=O)c4ccc5cc[nH]c5n4)CC3)nc2)c1` [Example 9, 4-(4-Methyl-6-{[4-(trifluoromethyl)pyridin-2-yl]amino}-2,3′-bipyridin-6′-yl)-1-(1H-pyrrolo[2,3-b]pyridin-6-ylcarbonyl)piperidin-4-ol], the IC50 in data set [2] came to 9 nM.
On the same count and under the same terms, the result for `Cc1cc(Nc2cc(C(F)(F)F)ccn2)nc(-c2ccc(C3(O)CCN(C(=O)c4ccc5cccnc5c4)CC3)nc2)c1` [Example 9-1] reads 30 nM; that for `Cc1cc(Nc2cc(C(F)(F)F)ccn2)nc(-c2ccc(C3(O)CCN(C(=O)c4ccc5cc[nH]c5c4)CC3)nc2)c1` [Example 9-2], 13 nM.
`Cc1cc(Nc2cc(C(F)(F)F)ccn2)nc(-c2ccc(C3(O)CCN(C(=O)c4c[nH]c5cc(C)ccc45)CC3)nc2)c1` [Example 9-3]: the IC50 in data set [2] stood at 10 nM.
For the compound `Cc1cc(Nc2cc(C(F)(F)F)ccn2)nc(-c2ccc(C3(O)CCN(C(=O)c4ccc5nc(C)c(C)nc5c4)CC3)nc2)c1` [Example 9-4], the IC50 in data set [2] was 5 nM.
`Cc1cc(Nc2cc(C(F)(F)F)ccn2)nc(-c2ccc(C3(O)CCN(C(=O)c4[nH]c5ccccc5c4C)CC3)nc2)c1` [Example 9-5]: the IC50 in data set [2] was 112 nM.
Still for that read-out and setting: the figure for `Cc1cc(Nc2cc(C(F)(F)F)ccn2)nc(-c2ccc(C3(O)CCN(C(=O)c4cc(-c5ccncc5)[nH]n4)CC3)nc2)c1` [Example 9-6] is 12 nM; for `Cc1cc(Nc2cc(C(F)(F)F)ccn2)nc(-c2ccc(C[C@H]3CC[C@@H](C(=O)O)CC3)nc2)c1` [Example 10 cis isomer, cis-4-[(4-methyl-6-{[4-(trifluoromethyl)pyridin-2-yl]amino}-2,3′-bipyridin-6′-yl)methyl]cyclohexanecarboxylic acid] it is 1 nM; for `Cc1cc(Nc2cc(C(F)(F)F)ccn2)nc(-c2ccc(C[C@H]3CC[C@H](C(=O)O)CC3)nc2)c1` [Example 10 trans isomer, trans-4-[(4-methyl-6-{[4-(trifluoromethyl)pyridin-2-yl]amino}-2,3′-bipyridin-6′-yl)methyl]cyclohexanecarboxylic acid] it is under 0.5 nM.
On the same count and under the same terms, the result for `Cc1cc(Nc2cc(C(F)(F)F)ccn2)nc(-c2ccc(NC3CCN(C(=O)c4cccc5c4NC(=O)C5)CC3)nc2)c1` [Example 447] reads 6 nM.
